Measured values reported in US20160058738A1, “PHARMACEUTICAL COMPOSITION FOR PREVENTING OR TREATING OVARY GRANULOSA CELL TUMORS CONTAINING GLYCOGEN SYNTHASE KINASE-3 BETA INHIBITOR AS ACTIVE INGREDIENT, AND FUNCTIONAL HEALTH FOOD COMPOSITION” (CHUNG-ANG UNIVERSITY INDUSTRY-ACADEMIC COOPERATION …, priority 2013, published 2016).

Tests used:
[1] = tested on: phosphorylation of the FOXL2 S33 residue; experiment: Western blotting of the phosphorylation of the FOXL2 S33 residue after kinase inhibitor treatment; assay type: cell-based, human; settings: 10 μM inhibitor, KGN cells overexpressing FOXL2 WT
Description: The cultured cells were harvested, and a protein was extracted from the cells using a Nonidet P-40 (NP-40) solution. For quantification of the extracted protein, a Bicinchoninic acid (BCA)™ protein assay was performed. The quantified protein was transferred to a polyvinylidene fluoride (PVDF) membrane by SDS-PAGE electrophoresis, and incubated with an antibody for each protein to be detected. Afterward, the proteins were detected using secondary antibodies and a ChemDoc system.
While the FOXL2 WT was overexpressed in the KGN cells, the cells were treated with 10 μM of the inhibitor of each kinase, cultured for 18 hours and sampled, and then a change in phosphorylation was measured by performing western blotting. Here, the change in phosphorylation was measured using an antibody specifically binding to a peptide consisting of an amino acid of SEQ. ID.
To confirm whether an inhibitory effect of GSK3beta on the FOXL2 S33 residue is a GSK3beta-specific effect, cells in which FOXL2 WT was overexpressed were treated with 10 μM each of AR-A014418 and TWS1119, which are two different GSK3beta inhibitors, sampled, and analyzed by western blotting. Here, AR-A014418 contains a compound represented by Formula 2.

[2] = tested on: cells in which the FOXL2 protein was overexpressed; experiment: Experiment for cell growth rate; assay type: cell-based, human; settings: for cell growth rate of the C134W mutant: cells overexpressing FOXL2 C134W mutant
Description: After the cells in which the FOXL2 protein was overexpressed were treated with a GSK3beta inhibitor (AR-A014418), a cell growth rate according to time was measured, and the result is shown in FIG. 13.

[3] = tested on: KGN cells stably expressing FOXL2; experiment: Efficacy on tumor induced by KGN cells in nude mice; assay type: in vivo, BALB/c-nu mice; settings: 2 mg/kg injected directly into tumor-induced region 10 times for two weeks, starting three weeks after cell injection
Source text: 6-week-old mature male BALB/c-nu mice were purchased from Central Laboratory Animal, Inc., and allowed for one week to be adapted to environments of the breeding facility and the laboratory in the Chung-Ang University Laboratory Animal Research Center to ensure that the mice had no general symptoms, prior to being used for the experiment. The animals were housed at a density of five mice per polycarbonate cage, and solid food for laboratory animals and water were freely provided. The environments for the breeding laboratory including a temperature, humidity, a ventilation cycle, a light/dark cycle, and illuminance were constantly maintained, and all the experiments were conducted in accordance with the regulation of the Chung-Ang University Animal Research Ethics Committee.
3×10^7 of KGN cells stably expressing FOXL2 were subcutaneously injected into each mouse to induce a tumor. Three weeks after the injection, the GSK3beta inhibitor (AR-A014418) was directly injected into a tumor-induced region at 2 mg/kg 10 times for two weeks and then a tumor size was measured, and the result is shown in FIG. 14.

FOXL2 protein = experiment: Experiment for protein stability (cyclohexamide chase, western blotting); assay type: cell-based, human; settings: FOXL2-overexpressing cells, then 10 μg cyclohexamide, sampled at 0, 6, 12, 24 hours
Description: The cultured cells were harvested, and a protein was extracted from the cells using a Nonidet P-40 (NP-40) solution. For quantification of the extracted protein, a Bicinchoninic acid (BCA)™ protein assay was performed. The quantified protein was transferred to a polyvinylidene fluoride (PVDF) membrane by SDS-PAGE electrophoresis, and incubated with an antibody for each protein to be detected. Afterward, the proteins were detected using secondary antibodies and a ChemDoc system. To confirm whether the effect of decreasing the cell viability by inducing the activity of a specific promoter such as TNFR1, FAS, Caspase8 and p21 induces regulation of FOXL2 protein stability by the phosphorylation of the FOXL2 S33 residue, cells in which a FOXL2 protein was overexpressed were treated with a GSK3beta inhibitor (SB 216763) and expressed, treated with 10 μg of cyclohexamide which is a protein synthesis inhibitor, and then sampled at 0, 6, 12, and 24 hours to perform western blotting, and the result is shown in FIG. 12.

| SMILES | phosphorylation of the FOXL2 S33 residue [1] | phosphorylation of the FOXL2 S33 residue ([1]; listed as Formula 2) | cell growth rate ([2]; FOXL2-overexpressing cells, growth rate according to time) | cell growth rate of the C134W mutant [2] | cell growth rate of the C134W mutant ([2]; listed as Formula 2) | size of the tumor induced in the ovarian GCT cells [3] | size of the tumor induced in the ovarian GCT cells ([3]; listed as Formula 2) | phosphorylation of the FOXL2 S33 residue ([1]; listed as Formula 1) | FOXL2 protein stability (FOXL2 protein) |
| --- | --- | --- | --- | --- | --- | --- | --- | --- | --- |
| COc1ccc(CNC(=O)Nc2ncc([N+](=O)[O-])s2)cc1 [AR-A014418, N-[(4-Methoxyphenyl)Methyl]-N′-(5-nitro-thiazol-2-yl)urea] | reduced | decreased | decrease | remarkably decreased | decreased | remarkably decreased | decreased | – | – |
| Cn1cc(C2=C(c3ccc(Cl)cc3Cl)C(=O)NC2=O)c2ccccc21 [SB 216763, 3-(2,4-Dichlorophenyl)-4-(1-methyl-1H-indol-3-yl)-1H-pyrrole-2,5-dione] | reduced | – | – | decreased | – | decreased | – | decreased | increased |
| Nc1cccc(-c2cc3c(Oc4cccc(O)c4)ncnc3[nH]2)c1 [TWS1119] | reduced | – | – | – | – | – | – | – | – |
